# pIC50, pKi: −log10 of the molar value. Active and inactive are the calls of the source. No cut-off for these calls is given here. Non-standard residues stand in square brackets, D forms with d. Residues, ends and D or L forms follow the SMILES beside them. ξ: configuration not given here. *: point of attachment. ξY = NC(Cc1ccc(O)cc1)C(=O)O; Nva = CCC[CH](N)C(=O)O; Cbz = O=C(OCc1ccccc1)*; ξI = CCC(C)C(N)C(=O)O; ξL = CC(C)CC(N)C(=O)O; ξT = CC(O)C(N)C(=O)O; NHNH2 = NN*
# Key:
# [1] = molecular target: T1, Proteasome Macropain subunit MB1 (Homo sapiens) (UniProt P28074); test: Inhibition of chymotrypsin-like activity of human 20S proteasome at 50 uM using Suc-Leu-Leu-Val-Tyr-AMC as substrate measured for 10 mins by fluorescence assay relative to control
# T1 sequence (whole entry): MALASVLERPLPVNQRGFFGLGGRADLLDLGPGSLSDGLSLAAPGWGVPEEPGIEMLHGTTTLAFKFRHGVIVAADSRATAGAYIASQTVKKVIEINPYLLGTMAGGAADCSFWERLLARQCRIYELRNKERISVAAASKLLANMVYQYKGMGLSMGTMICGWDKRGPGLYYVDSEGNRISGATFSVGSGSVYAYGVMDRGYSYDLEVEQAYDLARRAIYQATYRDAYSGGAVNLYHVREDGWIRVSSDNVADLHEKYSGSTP
# MM1R [2] = test: Inhibition of proteasome activity in human MM1R cells assessed as increase in total ubiquitin levels at 20 uM after 24 hrs by Western blot method; assay type: cell-based
# [3] = Cytotoxicity against human MM1R cells assessed as growth inhibition after 24 hrs by MTT assay; assay type: functional, cell-based; settings: MM.1R
# [4] = molecular target: Proteasome Macropain subunit (Homo sapiens) (UniProt P49721); test: Inhibition of trypsin-like activity of human 20S proteasome at 50 uM using Boc-Leu-Arg-Arg-AMC as substrate measured for 10 mins by fluorescence assay relative to control
# Sequence of Proteasome Macropain subunit (Homo sapiens) (P49721 whole entry): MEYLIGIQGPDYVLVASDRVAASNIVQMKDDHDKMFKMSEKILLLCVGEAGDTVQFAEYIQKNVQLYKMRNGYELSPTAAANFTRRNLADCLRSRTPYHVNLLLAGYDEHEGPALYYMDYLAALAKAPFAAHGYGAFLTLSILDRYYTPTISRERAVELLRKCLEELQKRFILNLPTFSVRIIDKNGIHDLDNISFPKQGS
# [5] = Cytotoxicity against human MM1R cells assessed as residual vitality at 100 uM after 24 hrs by MTT assay relative to control; assay type: functional
# [6] = molecular target: T1, Proteasome Macropain subunit MB1 (Homo sapiens); test: Time-dependent inhibition of chymotrypsin-like activity of human 20S proteasome using Suc-Leu-Leu-Val-Tyr-AMC as substrate at 10 to 100 uM by fluorescence assay
# [7] = molecular target: T2, Proteasome Macropain subunit MB1 (Homo sapiens, UniProt P28074); test: Competitive inhibition of chymotrypsin-like activity of human 20S proteasome using Suc-Leu-Leu-Val-Tyr-AMC as substrate measured for 10 mins by fluorescence assay
# T2 sequence (P28074 whole entry): T1 sequence (whole entry)
# [8] = molecular target: T3, Proteasome component C5 (Homo sapiens) (UniProt P20618); test: Inhibition of post-glutamyl peptide hydrolyzing activity of human 20S proteasome at 50 uM using Cbz-Leu-Leu-Glu-AMC as substrate measured for 10 mins by fluorescence assay relative to control
# T3 sequence (whole entry): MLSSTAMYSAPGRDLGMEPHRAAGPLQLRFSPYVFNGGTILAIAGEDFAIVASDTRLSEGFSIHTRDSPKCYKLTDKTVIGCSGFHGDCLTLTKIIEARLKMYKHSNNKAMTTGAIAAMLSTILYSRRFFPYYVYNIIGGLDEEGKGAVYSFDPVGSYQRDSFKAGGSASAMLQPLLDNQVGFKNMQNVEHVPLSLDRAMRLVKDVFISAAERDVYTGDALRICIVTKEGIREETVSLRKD
# MM1R [9] = test: Inhibition of proteasome activity in human MM1R cells assessed as increase in total ubiquitin levels at 10 uM after 24 hrs by Western blot method; assay type: cell-based
SMILES,inhibition [1] [%],inhibition [4] [%],further results
NC(=O)C[C@H](NC(=O)OCC1c2ccccc2-c2ccccc21)C(=O)O,33,–,–
CCCC(NC(=O)OCc1ccccc1)C(=O)NC(Cc1ccc(O)cc1)C(N)=O (centres undefined) (Cbz-[Nva]-Tyr-NH2; configuration not given here),17,–,–
OCC(Oc1ccccc1)C(O)C(O)C(CO)Oc1ccccc1 (centres undefined),5,–,–
CCOC(=O)c1ccc(NC(=O)CSc2nc3ccccc3o2)cc1,13,–,–
CC(C)(C)Oc1ccc(C[C@@H](NC(=O)OCC2c3ccccc3-c3ccccc32)C(=O)O)cc1,59,–,–
O=C(NC(Cc1ccc(O)cc1)C(=O)N[C@@H](Cc1ccccc1)C(=O)O)OCc1ccccc1 (some centres undefined) (Cbz-[ξY]-Phe-OH),7,–,–
COC(=O)[C@H](Cc1ccc(O)cc1)NC(=O)[C@H](CC(C)C)NC(=O)[C@H](CO)NC(=O)OCc1ccccc1 (Cbz-Ser-Leu-Tyr-OMe),–,22,increase in total ubiquitin levels (qualitative) (MM1R [2]): Active; pIC50 [3]: 4.65; Activity [5]: 4%; TDI [6]: Active; pKi [7]: 5.33
C[C@H](NC(=O)OCc1ccccc1)C(=O)N[C@@H](Cc1ccccc1)C(N)=O,24,–,–
O=C(Nc1ccc2nc(O)cc(C(=O)O)c2c1)Oc1ccccc1,48,74,–
CN/C(=N\CCSCc1ccc2ccccc2n1)NS(=O)(=O)c1ccccc1,–,–,increase in total ubiquitin levels (qualitative) (MM1R [2]): Active; pIC50 [3]: 4.74; Activity [5]: 4%; pKi [7]: 5.67
O=C(O)c1ccc(NCn2c(=S)[nH]c3ccccc32)cc1O,54,1,–
CC(C)C[C@H](NC(=O)[C@H](CO)NC(=O)OCc1ccccc1)C(=O)N[C@@H](Cc1ccc(O)cc1)C(=O)NN (Cbz-Ser-Leu-Tyr-NHNH2),–,26,inhibition [8]: 23%; pIC50 [3]: 4.53; Activity [5]: 4%; TDI [6]: Active; pKi [7]: 4.96
NS(=O)(=O)c1ccc(NC(=O)/C=C/c2ccccc2)cc1,33,11,–
COC(=O)[C@H](Cc1ccccc1)NC(=O)[C@H](Cc1ccccc1)NC(=O)[C@H](Cc1ccccc1)NC(=O)OCc1ccccc1 (Cbz-Phe-Phe-Phe-OMe),–,18,–
CCC(C)C(NC(=O)OCc1ccccc1)C(=O)N[C@@H](Cc1ccc(O)cc1)C(=O)O (some centres undefined) (Cbz-[ξI]-Tyr-OH),34,11,–
O=C(Nc1ccccc1C(=O)NCC1CC1)c1cccs1,60,–,–
COC(=O)[C@H](CO)NC(=O)[C@H](CC(C)C)NC(=O)[C@H](CC(C)C)NC(=O)OCc1ccccc1 (Cbz-Leu-Leu-Ser-OMe),–,–,increase in total ubiquitin levels (qualitative) (MM1R [2]): Active; pIC50 [3]: 4.79; Activity [5]: 4%; TDI [6]: Active; pKi [7]: 6.38
CC(Cc1ccccc1)NC(=O)C(O)C(O)C(O)C(O)CCO (centres undefined),36,6,–
CNC(Cc1ccc(OCc2ccccc2)cc1)C(=O)NC(CO)CC(C)C (centres undefined),33,–,–
COC(=O)C(CC(C)C)NC(=O)C(Cc1ccc(O)cc1)N(C(=O)OCc1ccccc1)C(=O)OCc1ccccc1 (centres undefined),46,–,–
NC(=O)C(NC(=O)c1ccccc1)SCc1ccccc1 (centres undefined),21,3,–
CC(C)(C)OC(=O)Cn1ncn(NC(=O)Cc2ccccc2)c1=O,49,–,–
NC(CCC(=O)OCc1ccccc1)C(=O)OCc1ccccc1 (centres undefined),34,–,–

SMILES,inhibition [1] [%],inhibition [4] [%],further results
O=C(CC(=O)c1cccnc1)NC(=O)c1ccccc1,43,–,–
CCOC(=O)C(NC(=O)Cc1ccccc1)C(=O)OCC,49,–,–
CC(C)C[C@H](NC(=O)c1cnc2ccccc2n1)C(=O)O,34,–,–
COC(=O)[C@H](CC(C)C)NC(=O)[C@H](Cc1ccccc1)NC(=O)[C@H](CO)NC(=O)OCc1ccccc1 (Cbz-Ser-Phe-Leu-OMe),–,–,increase in total ubiquitin levels (qualitative) (MM1R [2]): Active; pIC50 [3]: 4.75; Activity [5]: 4%; TDI [6]: Active; pKi [7]: 4.99
CC(=O)NC(Cc1ccccc1)C(=O)Nc1ccc(C)cc1 (centres undefined),43,–,–
CC(C)[C@H](NC(=O)[C@H](Cc1ccc(O)cc1)NC(=O)OCc1ccccc1)C(=O)O,21,–,–
CC(C)C[C@H](NC(=O)OCc1ccccc1)C(=O)N[C@@H](Cc1ccc(O)cc1)C(N)=O (Cbz-Leu-Tyr-NH2),17,–,–
CCC[C@H](NC(=O)OCc1ccccc1)C(=O)N[C@@H](Cc1ccc(O)cc1)C(N)=O (Cbz-[Nva]-Tyr-NH2),18,33,–
COC(=O)[C@H](CC(C)C)NC(=O)[C@H](CC(N)=O)NC(=O)[C@@H](NC(=O)OCc1ccccc1)C(C)C (Cbz-Val-Asn-Leu-OMe),15,32,–
COC(=O)[C@H](C)NC(=O)[C@H](Cc1ccccc1)NC(=O)[C@H](C)NC(=O)OCc1ccccc1 (Cbz-Ala-Phe-Ala-OMe),24,–,inhibition [8]: 24%
CC(C)C[C@@H](C=O)NC(=O)[C@H](CC(C)C)NC(=O)[C@H](CC(C)C)NC(=O)OCc1ccccc1 [MG-132] (Cbz-Leu-Leu-Leu-aldehyde),–,–,pIC50 [3]: 4.91; inhibition (MM1R [9]): Active
O=C(NCc1ccccc1)C(O)C(O)C(O)C(O)CO (centres undefined),15,2,–
CC(=O)NC(Cc1ccccc1)C(=O)Nc1ccc(S(N)(=O)=O)cc1 (centres undefined),34,–,–
CC(O)C(C=O)NC(=O)CNC(=O)OCc1ccccc1 (stereo not drawn) (Cbz-Gly-[ξT]-aldehyde),23,–,–
NC(Cc1c[nH]c2ccccc12)C(=O)OCc1ccccc1 (centres undefined),54,–,–
O=C(O)[C@H](Cc1ccc(O)cc1)NS(=O)(=O)Cc1ccccc1,60,–,–
O=C(CNC(=O)c1ccccc1)OC(C(=O)O)c1ccc(F)cc1 (centres undefined),12,–,–
CC(C)CC(NC(=O)C(CO)NC(=O)OCc1ccccc1)C(=O)NC(Cc1ccc(O)cc1)C(N)=O (stereo not drawn) (Cbz-Ser-Leu-Tyr-NH2; configuration not given here),–,29,increase in total ubiquitin levels (qualitative) (MM1R [2]): Active; pIC50 [3]: 4.55; Activity [5]: 4%; pKi [7]: 5.66
CC(C)[C@H](NC(=O)[C@H](Cc1ccc(O)cc1)NC(=O)OCc1ccccc1)C(N)=O (Cbz-Tyr-Val-NH2),11,23,–
COC(=O)[C@H](C)NC(=O)[C@H](CC(C)C)NC(=O)[C@H](Cc1ccccc1)NC(=O)OCc1ccccc1 (Cbz-Phe-Leu-Ala-OMe),22,–,–
CC(NC(=O)OCc1ccccc1)C(=O)NC(Cc1ccc(O)cc1)C(=O)OCc1ccccc1 (centres undefined),22,–,–
CC(C)CC(NC(=O)OCc1ccccc1)C(=O)N[C@@H](Cc1ccc(O)cc1)C(=O)O (some centres undefined) (Cbz-[ξL]-Tyr-OH),8,–,–
O=C(O)CCCC(=O)NC1CC2c3ccccc3C1c1ccccc12 (centres undefined),31,7,–

# — ChEMBL document CHEMBL3860032, “Identification of noncovalent proteasome inhibitors with high selectivity for chymotrypsin-like activity by a multistep structure-based virtual screening” (Eur J Med Chem, 2016)
